Laboratory results: US20230357099A1, “PYRAZOLO [3,4-B] PYRIDINE-4-CARBOXAMIDE NITRIFICATION INHIBITOR” (EUROCHEM ANTWERPTEN, priority 2020, published 2023)

Assays:
agricultural soils = assay: In soil nitrification inhibition assay; settings: soil; for inhibition at 50 µM: 50 µM of each compound; for inhibition at 100 µM: 100 µM of each compound
Experimental: Top layer (0 to 10 cm) soil samples were collected from different fields in Belgium (Merelbeke, Sint-Laureins and Moorslede). Vegetation was removed and samples were taken from different plots. All soil samples were mixed and sieved (mesh size 2.8 mm) to filter large debris and homogenize soil. The soil was stored at 5° C. in plastic containers covered with Saran foil to prevent changes in microbial community composition and to maintain the original soil water content.
Soil water content was determined by drying 20 g soil for ≥ 48 h in a 60° C. oven and measuring weight before and after drying. Based on the soil water content (± 20%), compound solutions were prepared so that addition of 200 µl compound and 200 µl NH4Cl solution would result in a final compound concentration of 50 µM (unless otherwise stated) and a final NH4+ concentration of 10 mM. Per treatment, 5 small pots were filled with 20 g soil. Next, the soil was treated first with the respective compound solution and then with the NH4Cl solution. Per tray, positive (50 µM DMP) and negative controls (DMSO) were included. […] Demineralized water was added to the soil every 2 to 3 days to a soil weight of 20 g. In the end, each sample of 20 g soil was dissolved in 100 ml 1 M KCI and shaken for 1 hour, followed by filtration through Whatmann® paper. The filtrate was used to measure pH, NH4+ and NO3— concentrations. The nitrification percentage was calculated as the ratio of the consumed ammonium in treated soil versus the consumed ammonium in non-treated soil; the nitrification inhibition percentage was calculated as ‘100% - the nitrification percentage’.

[1] = test system: agricultural soils (Moorslede and Sint-Laureins); assay: Greenhouse gas measurements from fertilized soil
Experimental: Two agricultural soils coming from fields in Moorslede and Sint-Laureins were used. Screw top vials were filled with 10 g soil. Vials were sealed with Parafilm and preincubated at 21° C. in the dark for 5 days. After pre-incubation, vials were ventilated using a fan. Then 100 µL of a 1 mM compound solution (10 % DMSO) was added, immediately followed by the addition of 100 µL 200 mM NH4Cl. Vials were closed gastight and 5 mL synthetic air was added to the headspace using a plastic syringe, followed by the transfer of 5 mL headspace to an evacuated 3 mL exetainer. Vials were incubated at 21° C. in the dark and background NO concentration was noted. At each sampling timepoint, 5 mL synthetic air was added again to the headspace using a plastic syringe, again followed by the transfer of 5 mL headspace to an evacuated 3 mL exetainer. Vials were ventilated and closed again, and new gas samples were transferred to exetainers like before. N2O in the exetainers were measured via gas chromatography (GC-14 B (Schimadzu) equipped with Haysep Q columns (same spec) and an ECD detector, He at c.a. 20 mL min, 70° C.). The CO2 and CH4 concentration in the 3 mL exetainer vials was measured using a GC (Trace-GC, Interscience) equipped with Haysep Q columns (80-100, ⅛″ divided in 2 part 0.25 and 2.0 m connected with a 6 port valve to allow backflush of water vapor) and a FID (CH4) and TCD (CO2). Carrier gas was He c.a. 20 mL/min kept at 90° C. NO concentration was measured directly by connecting a chemiluminescence NO detector (CLD 77 AM, eco physics) directly to the headspace using a needle.

For `CC(C)c1cc(C(=O)N2CCSCC2)c2cnn(C(C)C)c2n1` [Example 2], which inhibition at 50 µM (agricultural soils; 72 h, Soil 2, 3 days) is on record?
The inhibition at 50 µM was 4%.

What about the inhibition at 50 µM (agricultural soils; 72 h, Soil 3, 3 days) of the same compound?
The inhibition at 50 µM was 5%.

And the inhibition at 50 µM (agricultural soils; 168 h, Soil 1, 7 days)?
Its inhibition at 50 µM is 0%.

And the inhibition at 50 µM (agricultural soils; 168 h, Soil 2, 7 days)?
The inhibition at 50 µM was 15%.

What about the inhibition at 100 µM (agricultural soils; 168 h, Soil 2, 7 days, 6 inhibitors alone and combined with Example 2) of the same compound?
Its inhibition at 100 µM is 0%.

What about the inhibition at 100 µM (agricultural soils; 168 h, Soil 2, 7 days, double and triple combinations) of the same compound?
Its inhibition at 100 µM is 0%.

What about the inhibition at 50 µM (agricultural soils; 168 h, Soil 3, 7 days) of the same compound?
The inhibition at 50 µM was 0%.

And the “N2O emissions compared to the DMSO control (in words)” value ([1]; Moorslede soil)?
Its value is “strongly reduced the emissions”.

And the “Cumulative emission at indicated timepoint [ppb], N2O, 4 h” value ([1]; Moorslede soil)?
Its value is 119 ppb.

What about the “Cumulative emission at indicated timepoint [ppb], N2O, 24 h” value ([1]; Moorslede soil) of the same compound?
Its value is 834 ppb.

And the “Cumulative emission at indicated timepoint [ppb], N2O, 48 h” value ([1]; Moorslede soil)?
Its value is 1616 ppb.

And the “Cumulative emission at indicated timepoint [ppb], N2O, 72 h” value ([1]; Moorslede soil)?
Its value is 1875 ppb.

What about the “Cumulative emission at indicated timepoint [ppb], N2O, 99 h” value ([1]; Moorslede soil) of the same compound?
The value was 1875 ppb.

What about the “Cumulative emission at indicated timepoint [ppb], NO, 4 h” value ([1]; Moorslede soil) of the same compound?
Its value is 256 ppb.

And the “Cumulative emission at indicated timepoint [ppb], NO, 24 h” value ([1]; Moorslede soil)?
Its value is 611 ppb.

What about the “Cumulative emission at indicated timepoint [ppb], NO, 48 h” value ([1]; Moorslede soil) of the same compound?
The value was 1020 ppb.

And the “Cumulative emission at indicated timepoint [ppb], NO, 72 h” value ([1]; Moorslede soil)?
Its value is 1189 ppb.

And the “Cumulative emission at indicated timepoint [ppb], NO, 99 h” value ([1]; Moorslede soil)?
The value was 1183 ppb.

What about the “NO emissions compared to the DMSO or DMP control (in words)” value ([1]; Sint-Laureins soil) of the same compound?
The value was “reduce NO emissions”.

What about the “Cumulative emission at indicated timepoint [ppb], N2O, 4 h” value ([1]; Sint-Laureins soil) of the same compound?
The value was 33 ppb.

And the “Cumulative emission at indicated timepoint [ppb], N2O, 24 h” value ([1]; Sint-Laureins soil)?
Its value is 498 ppb.

What about the “Cumulative emission at indicated timepoint [ppb], N2O, 48 h” value ([1]; Sint-Laureins soil) of the same compound?
Its value is 1074 ppb.

And the “Cumulative emission at indicated timepoint [ppb], N2O, 72 h” value ([1]; Sint-Laureins soil)?
The value was 1562 ppb.

What about the “Cumulative emission at indicated timepoint [ppb], N2O, 99 h” value ([1]; Sint-Laureins soil) of the same compound?
Its value is 1703 ppb.

And the “Cumulative emission at indicated timepoint [ppb], NO, 4 h” value ([1]; Sint-Laureins soil)?
Its value is 81 ppb.

And the “Cumulative emission at indicated timepoint [ppb], NO, 24 h” value ([1]; Sint-Laureins soil)?
The value was 201 ppb.

What about the “Cumulative emission at indicated timepoint [ppb], NO, 48 h” value ([1]; Sint-Laureins soil) of the same compound?
Its value is 371 ppb.

And the “Cumulative emission at indicated timepoint [ppb], NO, 72 h” value ([1]; Sint-Laureins soil)?
Its value is 547 ppb.

And the “Cumulative emission at indicated timepoint [ppb], NO, 99 h” value ([1]; Sint-Laureins soil)?
The value was 600 ppb.
